Earlier results on one molecule are cited in publication PMC9474474, “Determination of pharmacokinetics and tissue distribution of a novel lutetium-labeled PSMA-targeted ligand, ^177Lu-DOTA-PSMA-GUL, in rats by using LC–MS/MS” (Scientific Reports, 2022).

Each structure is given as a SMILES string.

On the set-up of this series: method as in PMID 26985056. The conditions noted are these: cited from earlier work.

With `O=C([O-])CN1CCN(CC(=O)[O-])CCN(CC(=O)NCC2CCC(C(=O)N[C@@H](Cc3ccc4ccccc4c3)C(=O)NCCCC[C@H](NC(=O)N[C@@H](CCC(=O)O)C(=O)O)C(=O)O)CC2)CCN(CC(=O)[O-])CC1.[177Lu+3]` (some centres unmarked) [^177Lu-PSMA-617], for the setting “humans, radioactivity study”, the elimination half-life is given as 90 h. Also, the eliminated by urine result (patients with PSMA-positive tumor phenotype) is listed as “approximately 50%”.
